In patent US20120122180A1, “INC[…] TYPE III […] INTO M[…] OF THE TYPE I AND III […] AND FATTY ACID SYNTHASE FAMILIES” (Salk Institute for Biological Studies, priority 2006, published 2012):

Experiments:
Format in all cases: biochemical
[1] = target: T1, Steely1 C-terminal type III PKS domain (Dictyostelium discoideum, UniProt Q55E72); assay: In vitro polyketide extension assay with [14-C]malonyl-CoA and CoA-linked starters, TLC/autoradiography; settings: heterologously expressed domain, radiolabeled malonyl-CoA extender
T1 construct: poly-histidine (pHIS-8 vector, thrombin-cleavable) (N); made in house; host or cells: E. coli BL21(DE3) or CodonPlus (Stratagene)
T1 sequence (Q55E72 2776-3147): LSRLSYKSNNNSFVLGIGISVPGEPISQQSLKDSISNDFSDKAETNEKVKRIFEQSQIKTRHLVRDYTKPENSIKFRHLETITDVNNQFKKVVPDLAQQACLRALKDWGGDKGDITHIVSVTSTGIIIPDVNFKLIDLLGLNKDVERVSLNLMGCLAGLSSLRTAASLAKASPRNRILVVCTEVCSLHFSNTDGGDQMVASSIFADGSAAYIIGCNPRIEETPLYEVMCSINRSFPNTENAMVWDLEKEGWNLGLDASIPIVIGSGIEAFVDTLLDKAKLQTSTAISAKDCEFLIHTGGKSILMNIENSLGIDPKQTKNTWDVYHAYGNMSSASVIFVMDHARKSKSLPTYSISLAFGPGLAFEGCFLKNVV
Description: (§1) These differences in in vitro starter specificity are consistent with the substantial divergence of these steely active site predicted by homology modeling.
(§2) Standard 100 μL in vitro assays of heterologously expressed Steely C-terminal domains using [14-C]malonyl-CoA and various CoA-linked starters were conducted, extracted with ethyl acetate, analyzed by reverse-phase TLC, and visualized by autoradiography as previously reported.

[2] = target: T2, Steely2 C-terminal type III PKS domain (Dictyostelium discoideum, UniProt Q54FI3); assay: as above; settings: heterologously expressed domain, radiolabeled malonyl-CoA extender
T2 construct: poly-histidine (pHIS-8 vector, thrombin-cleavable) (N); made in house; host or cells: E. coli BL21(DE3) or CodonPlus (Stratagene)
T2 sequence (Q54FI3 2595-2968): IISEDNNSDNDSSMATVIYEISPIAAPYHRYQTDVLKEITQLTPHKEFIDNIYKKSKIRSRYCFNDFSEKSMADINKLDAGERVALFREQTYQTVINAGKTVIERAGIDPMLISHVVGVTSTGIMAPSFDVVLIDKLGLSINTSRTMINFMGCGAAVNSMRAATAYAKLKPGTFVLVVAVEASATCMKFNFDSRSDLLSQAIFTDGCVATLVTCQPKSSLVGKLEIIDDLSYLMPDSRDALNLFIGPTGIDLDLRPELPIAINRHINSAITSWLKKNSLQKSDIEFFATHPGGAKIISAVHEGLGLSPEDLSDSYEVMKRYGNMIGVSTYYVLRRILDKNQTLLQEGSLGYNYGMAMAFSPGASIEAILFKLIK
Description: as §1, §2

[3] = target: T3, Steely1 type III PKS domain (Dictyostelium discoideum, UniProt Q55E72); assay: HPLC-MS-MS analysis of in vitro assays with unlabeled malonyl-CoA; settings: overnight, Bis-Tris Propane pH 7.0
T3 construct: poly-histidine (pHIS-8 vector, thrombin-cleavable) (N); made in house; host or cells: E. coli BL21(DE3) or CodonPlus (Stratagene)
T3 sequence (Q55E72 2776-3147): T1 sequence (Q55E72 2776-3147)
Description: (§3) The related D. discoideum DIF-2 acylphloroglucinol scaffold seems to be derived from a pentanoyl intermediate. Therefore, in vitro assays of each steely C-terminal domain were also primed with butanoyl-CoA (12), as pentanoyl-CoA is not commercially available.
(§4) For HPLC-MS-MS analyses 25 μl injections of similarly prepared overnight reactions (but without organic extraction) buffered with 100 mM Bis-Tris Propane (pH 7.0), using unlabeled malonyl-CoA, were used. LC-MS-MS analyses were carried out on an Agilent 1100 HPLC with an integrated Agilent LC/MSD Trap XCT ion trap mass spectrometer, using a reversed-phase C18 column (4.6×150 mm; Gemini) maintained at 30° C. A gradient mobile phase ramped from 5% to 100% acetonitrile in water (with each solvent containing 0.1% v/v formic acid) between minutes 3 and 13 of a 25-min run using a flow rate of 0.5 ml min^−1 and a 0.1 ml min^−1 post column injection of 20 mM ammonium acetate in water. UV absorbance was monitored at 286 nm.
(§5) PCP was identified by direct HPLC-MS-MS comparison with an authentic synthetic standard, kindly provided by S. Horinouchi and N. Funa. Other hexanoyl- and butanoyl-primed enzymatic products were identified by comparing their relative HPLC elution times and negative MS-MS fragmentation patterns with previously published LC-MS-MS analyses of authentic standards (Funa et al. (2002) “Properties and substrate specificity of RppA, a chalcone synthase-related polyketide synthase in Streptomyces griseus” J Biol Chem 277:4628-4635). EICs with parent ion masses of plausible polyketide products were used to detect trace amounts of minor enzymatic products, but only triketide and tetraketide products were observed.

[4] = target: T4, Steely2 type III PKS domain (Dictyostelium discoideum, UniProt Q54FI3); assay: as above; settings: overnight, Bis-Tris Propane pH 7.0
T4 construct: poly-histidine (pHIS-8 vector, thrombin-cleavable) (N); made in house; host or cells: E. coli BL21(DE3) or CodonPlus (Stratagene)
T4 sequence (Q54FI3 2595-2968): T2 sequence (Q54FI3 2595-2968)
Description: as §3, §4, §5

SMILES	polyketide extension activity with the substance as starter [1]	polyketide extension activity with the substance as starter [2]	enzymatic products of starter-primed assay [3]	enzymatic products of starter-primed assay [4]
CCCCCC(=O)SCCNC(=O)CCNC(=O)[C@H](O)C(C)(C)COP(=O)(O)OP(=O)(O)OC[C@H]1O[C@@H](n2cnc3c(N)ncnc32)[C@H](O)[C@@H]1OP(=O)(O)O [hexanoyl-CoA]	catalyze iterative polyketide extension	catalyze iterative polyketide extension	produced only triketide (10) and tetraketide (11) lactonization-derived pyrones	catalyzes three rounds of polyketide chain extension and the final CHS-like intramolecular C6 to C1 Claisen condensation
CCCCCCCC(=O)SCCNC(=O)CCNC(=O)[C@H](O)C(C)(C)COP(=O)(O)OP(=O)(O)OC[C@H]1O[C@@H](n2cnc3c(N)ncnc32)[C@H](O)[C@@H]1OP(=O)(O)O [octanoyl-CoA]	accepted	only Steely1 accepted		
CC(C)(COP(=O)(O)OP(=O)(O)OC[C@H]1O[C@@H](n2cnc3c(N)ncnc32)[C@H](O)[C@@H]1OP(=O)(O)O)[C@@H](O)C(=O)NCCC(=O)NCCSC(=O)CC(=O)O [malonyl-CoA]	Neither enzyme showed significant polyketide extension activity	Neither enzyme showed significant polyketide extension activity		
CC(=O)SCCNC(=O)CCNC(=O)[C@H](O)C(C)(C)COP(=O)(O)OP(=O)(O)OC[C@H]1O[C@@H](n2cnc3c(N)ncnc32)[C@H](O)[C@@H]1OP(=O)(O)O [acetyl-CoA]	Neither enzyme showed significant polyketide extension activity	Neither enzyme showed significant polyketide extension activity		
CC(C)CC(=O)SCCNC(=O)CCNC(=O)[C@H](O)C(C)(C)COP(=O)(O)OP(=O)(O)OC[C@H]1O[C@@H](n2cnc3c(N)ncnc32)[C@H](O)[C@@H]1OP(=O)(O)O [isovaleryl-CoA]	not Steely1 would accept	would accept		
CCCC(=O)SCCNC(=O)CCNC(=O)[C@H](O)C(C)(C)COP(=O)(O)OP(=O)(O)OC[C@H]1O[C@@H](n2cnc3c(N)ncnc32)[C@H](O)[C@@H]1OP(=O)(O)O [butanoyl-CoA]			no effect on the cyclization fate	no effect on the cyclization fate
CC(C)(COP(=O)(O)OP(=O)(O)OC[C@H]1O[C@@H](n2cnc3c(N)ncnc32)[C@H](O)[C@@H]1OP(=O)(O)O)[C@@H](O)C(=O)NCCC(=O)NCCSC(=O)/C=C/c1ccc(O)cc1 [p-coumaroyl-CoA]	Neither enzyme showed significant polyketide extension activity	Neither enzyme showed significant polyketide extension activity		
